Source: patent US20240415985A1, “PHOTOCLEAVABLE PRODRUG-BASED NANOMEDICINE FOR IN-SITU MONITORABLE CANCER THERAPY” (The University of Hong Kong, priority 2021, published 2024)
Read-outs that look alike come from different tables or passages of the source. One block for each molecule: values may come before it.

Tests used:
[1] = Spectrum study of dye degradation under light irradiation (absorbance, fluorescence); type: physicochemical; details: for decomposition of dye upon light irradiation: 530 nm, in ICG/BC NPs and IR820/BC NPs (FIGS. 2K-2M)
Description: At different time points, the absorbance and fluorescence were measured by spectrometers without any dilution.

[2] = Loading capacity and encapsulation efficiency of IR783 and BC in NPs by HPLC; type: physicochemical
Description: BODIPY-Cb was dissolved in DMSO (20 μL, 10 mg/mL), and added dropwise to a 300 μL aqueous solution containing IR783 (400 μg/mL) under vigorous vortex. The solution was centrifuged once (2000×g, 10 min, 4° C.) to remove the precipitate. Then the supernatant was centrifuged twice (30,000×g, 30 min, 4° C.), and the resulting precipitate was re-suspended in 300 μL of sterile PBS. Other prodrug/dye NPs were prepared following the same procedure as above. The contents of IR783 and BC in the resulted nanoparticle solution were determined by HPLC analysis. Their loading capacity and encapsulation efficiency were calculated as follow: […]

[3] = tested on: human umbilical vein endothelial cells (HUVECs); test: Cytotoxicity in dark, biocompatibility evaluation; type: cell-based; details: 24 h, up to 100 μM
Description: (§1) HCT116 cells were cultured in RPMI-1640 (Gibco) supplemented with 10% FBS (Gibco) and 100 units/mL antibiotics (Penicillin-Streptomycin, Gibco) at 37° C. in a 5% CO2 humidified atmosphere. HUVECs cells were cultured in DMEM (Gibco) supplemented with 10% FBS (Gibco) and 100 units/mL antibiotics (Penicillin-Streptomycin, Gibco) at 37° C. in a 5% CO2 humidified atmosphere.
(§2) The cell viability was evaluated by MTT assay. HCT116 cells were incubated in 96-well microliter plates for 24 h. Then, gradient concentrations of BC prodrug or IR783/BC NPs in RPMI 1640 culture medium were added to the cells. After 6 h incubation, the residual BC or IR783/BC NPs were removed by fresh RPMI 1640 culture medium (100 μL). Then, the cells were irradiated by 530 nm LED light (50 mW/cm^2, 5 min) or incubated at room temperature without light. After another incubation for 24 h, MTT solution (10 μL, 10 mg/mL) was added to the cells to cultivate for 3 h. Next, the cell culture medium was discarded, and DMSO (100 μL) was then added. The absorbance was measured by a multi-mode microplate reader at 490 nm, 570 nm and 630 nm.

[4] = Singlet oxygen detection in solution (SOSG assay); type: physicochemical; details: 530 nm, 50 mW/cm^2, 0-1 min; equivalent concentration of BC
Description: Singlet oxygen generation was measured both in solutions and cells using SOSG and DCFH-DA as indicator, respectively. […] Besides, the intracellular ^1O2 generation was detected by CLSM. […] Subsequently, the cells were washed with PBS for 3 times and incubated with DCFH-DA (10 μM) for 30 min. The cells were irradiated by LED (530 nm, 50 mW/cm^2, 5 min) for the light irradiation groups. The intracellular fluorescence was observed by CLSM imaging to evaluate the ^1O2 generation.

[5] = In vivo biodistribution by fluorescence imaging in HCT116 tumor-bearing mice; design: species or system BALB/c nude mice; details: i.v., imaging 1-24 h post injection
Description: The biodistribution of IR783/BC NPs in the HCT116 tumor model was visualized by an in vivo fluorescence imaging system (Cailper PerkinElemer, Waltham, MA, United States). IR783, as a NIR fluorescent dye, was directly detected for living imaging. Mice were treated with free IR783 and IR783/BC NPs via intravenous injection with a dose of IR783 at 100 μg/kg. Fluorescence imaging was performed at 1, 6, 16, 20, and 24 h post injection. At 24 h, mice were euthanized and the tumors and major organs (heart, liver, spleen, lung, kidney) were excised for ex vivo imaging.

HCT116 cells [6] = test: Anti-proliferation effect by MTT assay; type: cell-based, human
Description: as §1, §2

HCT116 cells [7] = test: Apoptosis study (Annexin-V FITC/PI, flow cytometry); type: cell-based, human; details: 20 μM, with or without light irradiation
Description: For apoptosis study, HCT116 cells were seeded in 6-well plates at a density of 50000 cells/well and treated with free Cb or IR783/BC NPs at the equivalent concentration of Cb at 5 μM and 20 μM for 6 h. Then the cells were washed by PBS. The cells in the irradiation group were irradiated by light for 5 min. After 24-h incubation, cells were washed by PBS, collected by trypsin digestion, and stained with Annexin-V/FITC apoptosis kit. ACEA NovoCyte Quanteon flow cytometer (ACEA Biosciences, San Diego, CA, USA) was used for cell study.

HCT116 xenografts = test: In vivo antitumor efficacy; design: species or system BALB/c nude mice; details: without light irradiation, i.v. Day 0, 4, 8, 12
Description: BALB/c nude mice were purchased from SLAC Experiment Animal Co., Ltd. (Shanghai, China) and kept in the Laboratory Animal Center of Fudan University (Shanghai, China). For the subcutaneous tumor model, male BALB/c nude mice were injected with 2×10^7 HCT116 cells subcutaneously. The mice were then further kept in SPF condition for 5-7 days until tumors were observed.
The antitumor efficacy of IR783/BC NPs in the presence or absence of light was investigated in HCT116 tumor mouse model. The mice were randomly divided into six groups when the tumor size reached about 200 mm^3. For different groups, mice were treated with different formulations via i.v. injection at Day 0, 4, 8, and 12: (1) PBS; (2) PBS+hv; (3) IR783+hv; (4) Cb; (5) IR783/BC NPs; (6) IR783/BC NPs+hv. For the irradiation group, light irradiations (100 mW/cm^2, 10 min) were performed 24 h post injection. The dose for each treatment was set as 5 mg/kg. Tumor sizes and body weights were measured in a 2-day interval, and the tumor volume was calculated as V=½×width^2×length. At the end of the experiment (Day 14), all mice were euthanized, and the tumors and major organs were collected and sliced for H&E staining and immunohistochemical analysis.

[8] = refs [17, 39]; cited from earlier work
HCT116 cells [9] = test: Live/dead staining (Calcein-AM/PI); type: cell-based, human; details: BC equivalent 50 μM; groups with or without 530 nm irradiation as stated
Description: For live/dead staining, HCT116 cells were seeded in confocal dishes at a density of 10000 cells/well and treated with PBS, free IR783, free BC and IR783/BC NPs with an equivalent concentration of BC at 50 μM. For the irradiation groups, cells were washed by PBS after 6 h and irradiated by 530 nm LED for 5 min. Calcein-AM and PI were then added into the medium and the cells were observed by CLSM without any treatment.

Molecule: CC1(C)C(/C=C/C=C/C=C/C=C2\N(CCCCS(=O)(=O)O)c3ccc4ccccc4c3C2(C)C)=[N+](CCCCS(=O)(=O)[O-])c2ccc3ccccc3c21 [ICG, Indocyanine green]
decomposition of dye upon light irradiation [1]: decomposed

Encapsulation Efficiency [2]: 0.02% | Loading Capacity [2]: 1.15% | NIR fluorescence emission pattern upon light irradiation ([1]; 530 nm light irradiation): did not see similar phenomena | whole-body fluorescence retention after systemic administration [5]: fleetly eliminated
Molecule: CC1(C)C(=CC=C2CCCC(C=CC3=[N+](CCCCS(=O)(=O)[O-])c4ccccc4C3(C)C)=C2Cl)N(CCCCS(=O)(=O)[O-])c2ccccc21.[Na+] [IR783]
cytotoxicity in dark [3]: Negligible cytotoxicity | ^1O2 generation (SOSG fluorescence) [4]: much lower efficiency

decomposition of dye upon light irradiation [1]: decomposed
Molecule: CC1(C)C(=CC=C2CCCC(C=CC3=[N+](CCCCS(=O)(=O)[O-])c4ccc5ccccc5c4C3(C)C)=C2Cl)N(CCCCS(=O)(=O)[O-])c2ccc3ccccc3c21.[Na+] [IR820]

Molecule: O=C(O)CCCc1ccc(N(CCCl)CCCl)cc1 [chlorambucil, Chlorambucil]
cytotoxicity of free drug (HCT116 cells [6]; with/without light irradiation (FIG. 8B)): relatively low | apoptosis (HCT116 cells [7]): about 5% | anti-tumor efficacy (HCT116 xenografts): undermined | hydrolysis in aqueous solution [8]: rapidly hydrolyze

Molecule: boron-dipyrromethene-chlorambucil [BC]
Encapsulation Efficiency ([2]; listed as BC prodrug): 84.37% | Loading Capacity ([2]; listed as BC prodrug): 98.85% | Encapsulation Efficiency ([2]; listed as BODIPY-Cb): 84.37% | Loading Capacity ([2]; listed as BODIPY-Cb): 98.85% | IC50 (HCT116 cells [6]; 530 nm light irradiation, on BC prodrug basis, read-out: IC50 (cell viability)): 9.24 µM | cell death in live-dead staining (HCT116 cells [9]): dead cells presenting red fluorescence were observed
